Results from paper PMC9784969, “SARS-CoV-2 Inhibitors Identified by Phenotypic Analysis of a Collection of Viral RNA-Binding Molecules” (Pharmaceuticals, 2022).
Like-named read-outs stand apart in the source and are kept apart here.

Key:
[1] = test system: ATTL RNA; assay: ligand-based 1H NMR (1D, CPMG, wLOGSY); type: binding, SARS-CoV-2
[2] = test system: ORF7b RNA; assay: ligand-based 1H NMR (1D, CPMG, wLOGSY); type: binding, SARS-CoV-2
[3] = test system: SARS-CoV-2; type: cell-based; conditions: 48 h post-infection
[4] = test system: 3_S2m RNA; assay: RNA-based 1H NMR (TOCSY) titration; type: binding, SARS-CoV-2; conditions: RNA:ligand up to 1:4
Method: The RNA samples were previously diafiltrated into an aqueous solution containing 25 mM potassium phosphate (pH 6.2), 50 mM KCl and 0.1 mM EDTA, and the titration experiments were carried out at 27 °C using 50 μM RNA samples in 100% D2O. The 3_S2m titrations were duplicated at 25 °C using 120 μM RNA samples and additionally acquiring NOESY spectra (250 ms mixing time) at 1:0 and 1:4 ratios. For this system, the chemical shift perturbation analyses included 63 H1’, H2’, and aromatic 3_S2m resonances. The isolated 3_S2m hairpin was studied at two different temperatures (25 and 35 °C) using 120 and 500 μM RNA samples and similar TOCSY and NOESY (120 and 250 ms mixing times) experiments. […] The relaxation delay for NOESY and TOCSY acquisition was 2 and 1.5 s, respectively.

[5] = test system: SARS-CoV-2 USA-WA1/2020; assay: microbe, parasite or virus in culture; type: cell-based; conditions: Severe acute respiratory syndrome coronavirus 2, Vero C1008, 48 h, Vero E6 cells, MOI 0.025, two days; read-out: SARS-CoV-2 EC50
[6] = in vitro; conditions: human, uninfected 293T-ACE2 cells
[7] = test system: 3_SL1+2 RNA; type: binding
[8] = test system: SARS-CoV-2 USA-WA1/2020; assay: microbe, parasite or virus in culture; type: cell-based; conditions: Severe acute respiratory syndrome coronavirus 2, 48 h; 293T-ACE2 cells, MOI 0.25, two days; read-out: SARS-CoV-2 EC50
[9] = test system: PRF RNA; assay: ligand-based 1H NMR (1D, CPMG, wLOGSY); type: binding, SARS-CoV-2
[10] = test system: SCoV2 USA-WA1/2020; type: cell-based
[11] = target: 3_S2m-23fl RNA hairpin; assay: fluorescence intensity binding assay; set-up: species or system SARS-CoV-2; conditions: 0 mM NaCl, pH 6.6, 25 °C; read-out: Kd
Method: The 3_S2m-23fl RNA oligonucleotide used in fluorescence intensity experiments was purchased HPLC-purified from Integrated DNA Technologies (Coralville, IA, USA). […] The mixture of tRNAs from E. coli MRE 600 (identified as tRNA^mix) used to evaluate specificity was obtained from Roche (Basel, Switzerland).
3_S2m-23fl (at 100 nM concentration) was snap-cooled in a buffer containing sodium phosphate pH 6.6, 0 or 150 mM NaCl, and 0.1 mM EDTA and incubated with increasing amounts of compound. The specificity of the RNA–ligand interactions was evaluated by repeating the assays in the presence of a 100-fold molar excess (10 μM) of tRNA^mix. The equilibrium dissociation constants Kd were obtained by fitting the dose–response curves to a two-state binding model [41] with Prism software (GraphPad Software, San Diego, CA, USA). All fluorescence binding assays were carried out three times for each molecule and condition.

[12] = in vitro; conditions: African green monkey, uninfected Vero E6 cells
[13] = test system: 3_S2m RNA; assay: ligand-based 1H NMR (1D, CPMG, wLOGSY); type: binding, SARS-CoV-2
[14] = average of aliphatic protons, RNA:ligand 1:100 (clomiphene) or 1:50 (trim, qz2)
[15] = average of aromatic protons, RNA:ligand 1:100 (clomiphene) or 1:50 (trim, qz2)

## CC(C)CCN1CCC(CNc2nc3ccccc3c(=O)[nH]2)CC1 [qz2]
[1]; [14]
  CPMG variation: 1.57%
  LB: 4.09%
  LOGSY factor: 4.38%
[1]; [15]
  CPMG variation: 10.0%
  LB: 3.39%
  LOGSY factor: 9.98%
[1]; qz2 peak A, RNA:ligand 1:50
  CPMG variation: 7.14%
  LB: 6.48%
  LOGSY factor: 2.39%
[1]; qz2 peak C/D, RNA:ligand 1:50
  CPMG variation: 3.98%
  LB: 2.52%
  LOGSY factor: 6.82%
[1]; qz2 peak E/B, RNA:ligand 1:50
  CPMG variation: -8.59%
  LB: 7.56%
  LOGSY factor: 2.78%
[1]; qz2 peak F, RNA:ligand 1:50
  CPMG variation: 7.26%
  LB: -1.84%
  LOGSY factor: 3.39%
[1]; qz2 peak G, RNA:ligand 1:50
  CPMG variation: 2.72%
  LB: 8.16%
  LOGSY factor: 6.53%
[1]; qz2 peak I, RNA:ligand 1:50
  CPMG variation: 9.63%
  LB: 3.05%
  LOGSY factor: 10.3%
[1]; qz2 peak J, RNA:ligand 1:50
  CPMG variation: 9.03%
  LB: 12.1%
  LOGSY factor: 5.22%
[1]; qz2 peak K, RNA:ligand 1:50
  CPMG variation: 10.5%
  LB: -5.00%
  LOGSY factor: 14.4%
[2]; [14]
  LB: -7.94%
  LOGSY factor: 6.35%
[2]; [15]
  CPMG variation: 50.7%
  LB: 26.2%
  LOGSY factor: 33.7%
[2]; qz2 peak A, RNA:ligand 1:50
  CPMG variation: -33.2%
  LB: -5.02%
  LOGSY factor: 3.94%
[2]; qz2 peak C/D, RNA:ligand 1:50
  CPMG variation: -34.1%
  LB: -10.7%
  LOGSY factor: 9.65%
[2]; qz2 peak E/B, RNA:ligand 1:50
  CPMG variation: -16.1%
  LB: -1.09%
  LOGSY factor: 5.54%
[2]; qz2 peak F, RNA:ligand 1:50
  CPMG variation: -4.16%
  LB: -14.4%
  LOGSY factor: 6.18%
[2]; qz2 peak G, RNA:ligand 1:50
  CPMG variation: -19.2%
  LB: -8.90%
  LOGSY factor: 6.45%
[2]; qz2 peak I, RNA:ligand 1:50
  CPMG variation: 48.3%
  LB: 30.9%
  LOGSY factor: 7.00%
[2]; qz2 peak J, RNA:ligand 1:50
  CPMG variation: 45.5%
  LB: 38.3%
  LOGSY factor: 76.3%
[2]; qz2 peak K, RNA:ligand 1:50
  CPMG variation: 58.5%
  LB: 9.52%
  LOGSY factor: 17.9%
[3]
  viral titers in supernatants (TCID50): below the limit of detection
[4]
  RNA chemical shift perturbations: smaller perturbations
[5]
  EC50: 7.52 µM
[6]
  CC50 at 2 days: > 6.6 µM
[7]; [14]
  LB: -2.14%
  LOGSY factor: 4.45%
[7]; [15]
  CPMG variation: 10.7%
  LB: 13.1%
  LOGSY factor: 11.5%
[7]; qz2 peak A, RNA:ligand 1:50
  CPMG variation: -13.7%
  LB: -2.06%
  LOGSY factor: 2.25%
[7]; qz2 peak C/D, RNA:ligand 1:50
  CPMG variation: -16.2%
  LB: -4.34%
  LOGSY factor: 7.61%
[7]; qz2 peak E/B, RNA:ligand 1:50
  CPMG variation: -19.5%
  LB: 7.16%
  LOGSY factor: 3.76%
[7]; qz2 peak F, RNA:ligand 1:50
  CPMG variation: -4.16%
  LB: -9.61%
  LOGSY factor: 3.95%
[7]; qz2 peak G, RNA:ligand 1:50
  CPMG variation: -11.4%
  LB: -3.71%
  LOGSY factor: 4.70%
[7]; qz2 peak I, RNA:ligand 1:50
  CPMG variation: 11.7%
  LB: 11.8%
  LOGSY factor: 15.1%
[7]; qz2 peak J, RNA:ligand 1:50
  CPMG variation: 11.1%
  LB: 21.8%
  LOGSY factor: 16.0%
[7]; qz2 peak K, RNA:ligand 1:50
  CPMG variation: 8.91%
  LB: 5.71%
  LOGSY factor: 3.38%
[8]
  EC50: 0.12 µM
[9]; [14]
  CPMG variation: -10.71%
  LB: -3.21%
  LOGSY factor: 3.74%
[9]; [15]
  CPMG variation: 13.0%
  LB: -0.27%
  LOGSY factor: 22.5%
[9]; qz2 peak A, RNA:ligand 1:50
  CPMG variation: -12.9%
  LB: -3.66%
  LOGSY factor: 3.10%
[9]; qz2 peak C/D, RNA:ligand 1:50
  CPMG variation: -17.7%
  LB: -8.83%
  LOGSY factor: 7.49%
[9]; qz2 peak E/B, RNA:ligand 1:50
  CPMG variation: -18.2%
  LB: 3.04%
  LOGSY factor: 2.11%
[9]; qz2 peak F, RNA:ligand 1:50
  CPMG variation: -0.60%
  LB: -8.91%
  LOGSY factor: 3.69%
[9]; qz2 peak G, RNA:ligand 1:50
  CPMG variation: -7.24%
  LB: 1.78%
  LOGSY factor: 2.32%
[9]; qz2 peak I, RNA:ligand 1:50
  CPMG variation: 13.2%
  LB: -0.20%
  LOGSY factor: 13.3%
[9]; qz2 peak J, RNA:ligand 1:50
  CPMG variation: 11.4%
  LB: -1.72%
  LOGSY factor: 42.7%
[9]; qz2 peak K, RNA:ligand 1:50
  CPMG variation: 14.6%
  LB: 1.11%
  LOGSY factor: 11.4%
[10]; 293T-ACE2, MOI 2, 8-h single cycle, added at +2 h relative to infection
  nucleocapsid protein expression: strongly inhibited
[10]; 293T-ACE2, MOI 2, relative to infection
  time of addition with maximum inhibition: -2 h
[11]
  Kd: 26.7 µM
[12]
  CC50 at 2 days: > 20 µM
[13]; [14]
  CPMG variation: -0.71%
  LB: 1.30%
  LOGSY factor: 3.15%
[13]; [15]
  CPMG variation: 10.3%
  LB: 6.50%
  LOGSY factor: 11.1%
[13]; qz2 peak A, RNA:ligand 1:50
  CPMG variation: 6.71%
  LB: 4.87%
  LOGSY factor: 1.60%
[13]; qz2 peak C/D, RNA:ligand 1:50
  CPMG variation: -1.93%
  LB: 2.61%
  LOGSY factor: 3.32%
[13]; qz2 peak E/B, RNA:ligand 1:50
  CPMG variation: -10.6%
  LB: 11.4%
  LOGSY factor: 6.11%
[13]; qz2 peak F, RNA:ligand 1:50
  CPMG variation: 6.38%
  LB: -12.7%
  LOGSY factor: 2.81%
[13]; qz2 peak G, RNA:ligand 1:50
  CPMG variation: -1.76%
  LB: 4.32%
  LOGSY factor: 1.92%
[13]; qz2 peak I, RNA:ligand 1:50
  CPMG variation: 10.3%
  LB: 11.5%
  LOGSY factor: 5.19%
[13]; qz2 peak J, RNA:ligand 1:50
  CPMG variation: 9.16%
  LB: 11.3%
  LOGSY factor: 9.42%
[13]; qz2 peak K, RNA:ligand 1:50
  CPMG variation: 11.6%
  LB: -3.23%
  LOGSY factor: 18.7%
